Patent US20230227447A1, “BENZYLAMINE DERIVATIVES AS DDRS INHIBITORS” (CHIESI FARMACEUTICI S.P.A., priority 2020, published 2023)
Counter-ions that a name gives are not always drawn.

Legend:
DDR1 [1] = target: T1, DDR1 (Homo sapiens, UniProt Q08345); assay: DDR1 cell based assay (PathHunter U2OS DDR1 assay); parameters: host or cells: U2OS-DDR1; details: U2OS-DDR1 cells, bovine Type II Collagen 20 μg/ml, luminescence
Experimental: The inhibition of DDR1 receptor activation by compounds was evaluated by PathHunter® U2OS DDR1 assay (Eurofins DiscoverX), according to the manufacturer's instructions. Briefly, U2OS-DDR1 cells were seeded in white 384-well plates at a density of 5000 cells/well and incubated for 2 hours at 37° C. and 5% CO2. Cells were then treated with compounds at different concentrations and incubated for 30 minutes, before stimulation with bovine Type II Collagen 20 μg/ml and incubation overnight at 37° C. and 5% CO2. PathHunter Detection Reagents were prepared according to the protocol provided by DiscoverX and 20 μl/well of this mix were added to each well. After incubating the plates for 1 hour at room temperature in the dark, luminescence signal was acquired with a plate reader. Raw data were normalized to vehicle control (0% for normalization) and positive control (100% for normalization; cells treated with 20 μg/ml collagen II) and IC50 parameters were calculated in GraphPad Prism 8.0 software, using sigmoidal dose-response curve fitting with variable slope.

DDR1 [2] = target: T1, DDR1; assay: DDR1 binding assay (LanthaScreen Europium Kinase Binding assay); parameters: purchased Carna Biosciences; details: 5 nM DDR1, 20 nM Kinase Tracer 178, 1 hour at room temperature; Ki from IC50 by Cheng-Prusoff
Experimental: (§1) DDR1 and DDR2 binding assays were performed using Life Technologies LanthaScreen™ Europium Kinase Binding assay. The compounds were incubated with 5 nM DDR1 (Carna Biosciences) or 5 nM DDR2 (Life Technologies) for 1 hour at room temperature in white 384-well OptiPlate (PerkinElmer), containing 20 nM or 10 nM Kinase Tracer 178 respectively and 2 nM Europium labelled anti-GST antibody (Life Technologies) in assay buffer (50 mM HEPES pH 7.5, 10 mM MgCl2, 1 mM EGTA and 0.01% BRIJ35).
(§2) The ratio of fluorescence emission 665 nm/615 nm after excitation at 340 nm was obtained using the Tecan Spark 20M plate reader. IC50 values were determined in GraphPad Prism 7.0 software, using 4 parameter model: log(inhibitor) vs. response. IC50 values were converted in Ki using the Cheng-Prusoff equation (Ki=IC50/(1+[Tracer]/Kd).

DDR2 [3] = target: T2, DDR2 (Homo sapiens, UniProt Q16832); assay: DDR2 binding assay (LanthaScreen Europium Kinase Binding assay); parameters: purchased Life Technologies; details: 5 nM DDR2, 10 nM Kinase Tracer 178, 1 hour at room temperature; Ki from IC50 by Cheng-Prusoff
T2 sequence (Q16832 22-855): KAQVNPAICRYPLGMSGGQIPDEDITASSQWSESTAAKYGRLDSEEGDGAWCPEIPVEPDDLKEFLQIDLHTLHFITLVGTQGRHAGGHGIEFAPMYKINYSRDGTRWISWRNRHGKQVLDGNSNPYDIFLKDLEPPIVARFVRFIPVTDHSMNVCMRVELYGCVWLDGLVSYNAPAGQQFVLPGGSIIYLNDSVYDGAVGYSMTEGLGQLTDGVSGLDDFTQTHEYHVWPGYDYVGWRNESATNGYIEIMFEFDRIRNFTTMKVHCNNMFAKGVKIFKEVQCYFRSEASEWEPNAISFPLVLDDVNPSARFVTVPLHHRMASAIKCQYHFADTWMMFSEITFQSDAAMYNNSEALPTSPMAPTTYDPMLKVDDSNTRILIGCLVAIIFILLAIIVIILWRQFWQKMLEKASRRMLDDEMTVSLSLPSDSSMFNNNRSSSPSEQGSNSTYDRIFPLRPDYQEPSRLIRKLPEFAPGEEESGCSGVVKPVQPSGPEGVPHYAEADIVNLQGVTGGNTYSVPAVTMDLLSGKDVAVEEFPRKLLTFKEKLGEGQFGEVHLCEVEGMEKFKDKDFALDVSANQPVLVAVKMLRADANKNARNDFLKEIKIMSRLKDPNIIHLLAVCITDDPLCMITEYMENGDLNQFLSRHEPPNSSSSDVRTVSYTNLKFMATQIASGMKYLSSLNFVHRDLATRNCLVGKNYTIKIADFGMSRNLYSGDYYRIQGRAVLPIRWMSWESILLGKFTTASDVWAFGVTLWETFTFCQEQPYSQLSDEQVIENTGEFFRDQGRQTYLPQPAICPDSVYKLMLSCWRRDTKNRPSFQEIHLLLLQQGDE
Experimental: as §1, §2

DDR2 [4] = target: T2, DDR2; assay: DDR2 cell based assay (phospho-ELISA in HEK293T-DDR2 recombinant cells); parameters: expressed in transfected cells; host or cells: HEK293T-DDR2 recombinant cells; details: bovine Type II Collagen 50 μg/ml
Experimental: The inhibition of DDR2 phosphorylation by compounds was evaluated in HEK293T-DDR2 recombinant cells by phospho-ELISA assay. Briefly, HEK293T-DDR2 cells were seeded in poly-D-lysine-coated 24-well plates at a density of 250.000 cells/well and incubated for 1.5 hours at 37° C. and 5% CO2 in DMEM+10% FBS. After that, the medium was changed to serum-free DMEM and cells were incubated for 3 hours. Then. test compounds were added at different concentrations 30 minutes before stimulation with bovine Type II Collagen at 50 μg/ml for further 3 hours. For DDR2 phospho-ELISA assay (DuoSet IC Human Phospho-DDR2; R&D Systems), protein extracts were obtained by adding 60 μl/well of lysis buffer prepared according to the manufacturer's instructions. Protein concentration in the samples was determined by BCA assay and the levels of phospho-DDR2 were determined following R&D Systems indications. Raw data were normalized to maximal inhibition control (0% for normalization) and positive control (100% for normalization; cells treated with […] collagen II) and IC50 parameters were calculated in GraphPad Prism 8.0 software, using sigmoidal dose-response curve fitting with variable slope.

T1 sequence (Q08345 19-913): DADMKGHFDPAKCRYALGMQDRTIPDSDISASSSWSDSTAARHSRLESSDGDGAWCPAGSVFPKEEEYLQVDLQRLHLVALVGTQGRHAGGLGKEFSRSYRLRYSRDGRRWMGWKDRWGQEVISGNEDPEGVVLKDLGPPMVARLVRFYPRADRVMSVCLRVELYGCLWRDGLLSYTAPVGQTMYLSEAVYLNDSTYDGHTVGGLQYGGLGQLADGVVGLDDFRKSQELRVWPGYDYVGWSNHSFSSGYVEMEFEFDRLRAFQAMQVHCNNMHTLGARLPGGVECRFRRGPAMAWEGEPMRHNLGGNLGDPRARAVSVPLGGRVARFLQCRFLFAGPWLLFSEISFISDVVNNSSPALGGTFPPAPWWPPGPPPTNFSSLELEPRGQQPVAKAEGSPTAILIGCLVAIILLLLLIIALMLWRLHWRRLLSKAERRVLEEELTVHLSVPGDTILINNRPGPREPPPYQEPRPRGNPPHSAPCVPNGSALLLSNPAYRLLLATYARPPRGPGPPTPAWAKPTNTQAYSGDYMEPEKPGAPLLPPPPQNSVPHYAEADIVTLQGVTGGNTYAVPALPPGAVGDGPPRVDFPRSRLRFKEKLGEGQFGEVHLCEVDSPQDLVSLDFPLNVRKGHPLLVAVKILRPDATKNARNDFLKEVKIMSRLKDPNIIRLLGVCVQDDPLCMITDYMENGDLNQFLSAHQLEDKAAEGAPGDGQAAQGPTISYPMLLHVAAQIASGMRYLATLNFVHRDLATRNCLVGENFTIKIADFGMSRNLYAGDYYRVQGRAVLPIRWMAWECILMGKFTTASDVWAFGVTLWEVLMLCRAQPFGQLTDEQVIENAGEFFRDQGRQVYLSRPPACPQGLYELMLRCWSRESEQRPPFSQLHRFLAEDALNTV

SMILES	IC50 (DDR1 [1]) [nM]	Ki (DDR1 [2]) [nM]	Ki (DDR2 [3]) [nM]	IC50 (DDR2 [4]) [nM]
Cc1cn(-c2cc(NC(=O)c3ccc(C)c(CNc4cncnc4)c3)cc(C(F)(F)F)c2)cn1 [Example 20, 4-methyl-N-(3-(4-methyl-1H-imidazol-1-yl)-5-(trifluoromethyl)phenyl)-3-((pyrimidin-5-ylamino)methyl)benzamide]	< 10	< 30	< 30	10 to 15
CNC(=O)c1cc(NCc2cc(C(=O)Nc3cc(CN4CCN(C)CC4)cc(C(F)(F)F)c3)ccc2C)ccn1 [Example 24, N-methyl-4-((2-methyl-5-((3-((4-methylpiperazin-1-yl)methyl)-5-(trifluoromethyl)phenyl)carbamoyl)benzyl)amino)picolinamide]	–	< 30	< 30	–
Cc1cn(-c2cc(NC(=O)c3ccc(C)c(CNC(=O)c4cnc5[nH]ccc5c4)c3)cc(C(F)(F)F)c2)cn1 [Example 25, N-(2-methyl-5-((3-(4-methyl-1H-imidazol-1-yl)-5-(trifluoromethyl)phenyl)carbamoyl)benzyl)-1H-pyrrolo[2,3-b]pyridine-5-carboxamide]	–	< 30	< 30	–
Cc1ccc(C(=O)Nc2cc(CN3CCN(C)CC3)cc(C(F)(F)F)c2)cc1CNC(=O)c1cnc2[nH]ccc2c1 [Example 26, N-(2-methyl-5-((3-((4-methylpiperazin-1-yl)methyl)-5-(trifluoromethyl)phenyl)carbamoyl)benzyl)-1H-pyrrolo[2,3-b]pyridine-5-carboxamide]	–	< 30	< 30	–
CC(C)c1ccc(C(=O)Nc2cc(CN3CCN(C)CC3)cc(C(F)(F)F)c2)cc1CNC(=O)c1cnc2[nH]ccc2c1 [Example 27, N-(2-isopropyl-5-((3-((4-methylpiperazin-1-yl)methyl)-5-(trifluoromethyl)phenyl)carbamoyl)benzyl)-1H-pyrrolo[2,3-b]pyridine-5-carboxamide]	–	300 to 1000	300 to 1000	–
CCCc1ccc(C(=O)Nc2cc(CN3CCN(C)CC3)cc(C(F)(F)F)c2)cc1CNC(=O)c1cnc2ccccn12 [Example 28, N-(5-((3-((4-methylpiperazin-1-yl)methyl)-5-(trifluoromethyl)phenyl)carbamoyl)-2-propylbenzyl)imidazo[1,2-a]pyridine-3-carboxamide formate salt]	–	300 to 1000	300 to 1000	–
CCCc1ccc(C(=O)Nc2cc(CN3CCN(C)CC3)cc(C(F)(F)F)c2)cc1CNc1cncnc1 [Example 29, N-(3-((4-methylpiperazin-1-yl)methyl)-5-(trifluoromethyl)phenyl)-4-propyl-3-((pyrimidin-5-ylamino)methyl)benzamide]	–	< 30	30 to 300	–
CC(C)c1ccc(C(=O)Nc2cc(CN3CCN(C)CC3)cc(C(F)(F)F)c2)cc1CNc1cncnc1 [Example 30, 4-isopropyl-N-(3-((4-methylpiperazin-1-yl)methyl)-5-(trifluoromethyl)phenyl)-3-((pyrimidin-5-ylamino)methyl)benzamide]	–	< 30	< 30	–
COc1ccc(NC(=O)c2ccc(C)c(CNc3cncnc3)c2)cc1C(F)(F)F [Example 31, N-(4-methoxy-3-(trifluoromethyl)phenyl)-4-methyl-3-((pyrimidin-5-ylamino)methyl)benzamide]	< 10	< 30	< 30	< 10
Cc1ccc(C(=O)Nc2cccc(C(F)(F)F)c2)cc1CNc1cncnc1 [Example 32, 4-methyl-3-((pyrimidin-5-ylamino)methyl)-N-(3-(trifluoromethyl)phenyl)benzamide]	< 10	< 30	< 30	< 10
O=C(Nc1cccc(C(F)(F)F)c1)c1ccc(F)c(CNc2cnc3[nH]ccc3c2)c1 [Example 33, 3-(((1H-pyrrolo[2,3-b]pyridin-5-yl)amino)methyl)-4-fluoro-N-(3-(trifluoromethyl)phenyl)benzamide]	–	< 30	< 30	–
Cc1ccc(C(=O)Nc2cccc(C(F)(F)F)c2)cc1CNc1cccnc1 [Example 34, 4-methyl-3-((pyridin-3-ylamino)methyl)-N-(3-(trifluoromethyl)phenyl)benzamide]	< 10	< 30	< 30	< 10
Cn1ccc(-c2cncc(NCc3cc(C(=O)Nc4cccc(OC(F)(F)F)c4)ccc3F)c2)n1 [Example 35, 4-fluoro-3-(((5-(1-methyl-1H-pyrazol-3-yl)pyridin-3-yl)amino)methyl)-N-(3-(trifluoromethoxy)phenyl)benzamide]	< 10	< 30	< 30	< 10
Cc1cn(-c2cc(NC(=O)c3ccc(C(F)F)c(CNc4cncnc4)c3)cc(C(F)(F)F)c2)cn1 [Example 36, 4-(difluoromethyl)-N-(3-(4-methyl-1H-imidazol-1-yl)-5-(trifluoromethyl)phenyl)-3-((pyrimidin-5-ylamino)methyl)benzamide]	–	< 30	< 30	–
Cc1ccc(C(=O)Nc2cccc(OC(F)(F)F)c2)cc1CNc1cncnc1 [Example 37, 4-methyl-3-((pyrimidin-5-ylamino)methyl)-N-(3-(trifluoromethoxy)phenyl)benzamide]	< 10	< 30	< 30	10 to 15
O=C(Nc1cccc(OC(F)(F)F)c1)c1ccc(F)c(CNc2cnc3[nH]ccc3c2)c1 [Example 38, 3-(((1H-pyrrolo[2,3-b]pyridin-5-yl)amino)methyl)-4-fluoro-N-(3-(trifluoromethoxy)phenyl)benzamide]	< 10	< 30	< 30	10 to 15
